Experimental data reported in ChEMBL document CHEMBL1139775, “A novel ketolide class: Synthesis and antibacterial activity of a lead compound” (2007).
≈ marks a conversion by molar mass, not a printed value.

Columns and labels:
Format in all cases: functional
Haemophilus influenzae = assay: Antibacterial activity against Haemophilus influenzae ATCC 49247
Staphylococcus aureus [1] = assay: Antibacterial activity against […] MLSc
Escherichia coli = assay: Antibacterial activity against Escherichia coli ATCC 25922
Streptococcus pneumoniae [2] = assay: Antibacterial activity against erythromycin-sensitive Streptococcus pneumoniae
Staphylococcus aureus [3] = assay: Antibacterial activity against erythromycin-sensitive Staphylococcus aureus ATCC 13709
Streptococcus pyogenes [4] = assay: Antibacterial activity against erythromycin-sensitive Streptococcus pyogenes 3565
Streptococcus pneumoniae [5] = assay: Antibacterial activity against Streptococcus pneumoniae CI137 M
Streptococcus pneumoniae [6] = assay: Antibacterial activity against Streptococcus pneumoniae 4636 MLSc
Streptococcus pyogenes [7] = assay: Antibacterial activity against Streptococcus pyogenes MLSi
Streptococcus pyogenes [8] = assay: Antibacterial activity against Streptococcus pyogenes M
Moraxella catarrhalis = assay: Antibacterial activity against Moraxella catarrhalis ATCC 23246

Row | MIC (Haemophilus influenzae) [µg/mL] | MIC (Staphylococcus aureus [1]) [µg/mL] | MIC (Escherichia coli) [µg/mL] | MIC (Streptococcus pneumoniae [2]) [µg/mL] | MIC (Staphylococcus aureus [3]) [µg/mL] | MIC (Streptococcus pyogenes [4]) [µg/mL] | MIC (Streptococcus pneumoniae [5]) [µg/mL] | MIC (Streptococcus pneumoniae [6]) [µg/mL] | MIC (Streptococcus pyogenes [7]) [µg/mL] | MIC (Streptococcus pyogenes [8]) [µg/mL] | MIC (Moraxella catarrhalis) [µg/mL] | Compound
1 | 16 (≈ 26.1 µM) | > 128 | 64 (≈ 104 µM) | 0.06 (≈ 0.0979 µM) | 0.25 (≈ 0.408 µM) | 0.06 (≈ 0.0979 µM) | 0.25 (≈ 0.408 µM) | > 128 | 0.06 (≈ 0.0979 µM) | 0.25 (≈ 0.408 µM) | 0.12 (≈ 0.196 µM) | CC[C@@H]1OC(=O)[C@H](C)C(=O)[C@H](C)[C@@H](O[C@@H]2O[C@H](C)C[C@H](N(C)C)[C@H]2O)[C@@](C)(OC)C[C@@H](C)C(=O)[C@H](C)[C@H]2NC(=O)O[C@]12C
2 | 16 (≈ 26.2 µM) | > 128 | 128 (≈ 209 µM) | ≤ 0.06 | 0.5 (≈ 0.817 µM) | 0.12 (≈ 0.196 µM) | 0.12 (≈ 0.196 µM) | > 128 | 0.5 (≈ 0.817 µM) | 0.12 (≈ 0.196 µM) | 0.5 (≈ 0.817 µM) | CC[C@@H]1OC(=O)[C@H](C)C(=O)[C@H](C)[C@@H](O[C@@H]2O[C@H](C)C[C@H](N(C)C)[C@H]2O)[C@@](C)(OC)C[C@@H](C)C(=O)[C@H](C)[C@H]2CC(=O)O[C@]12C

Row | Compound | MIC (Haemophilus influenzae) [µg/mL] | MIC (Staphylococcus aureus [1]) [µg/mL] | MIC (Escherichia coli) [µg/mL] | MIC (Streptococcus pneumoniae [2]) [µg/mL] | MIC (Staphylococcus aureus [3]) [µg/mL] | MIC (Streptococcus pyogenes [4]) [µg/mL] | MIC (Streptococcus pneumoniae [5]) [µg/mL] | MIC (Streptococcus pneumoniae [6]) [µg/mL] | MIC (Streptococcus pyogenes [7]) [µg/mL] | MIC (Streptococcus pyogenes [8]) [µg/mL] | MIC (Moraxella catarrhalis) [µg/mL]
3 | CC[C@H]1OC(=O)[C@H](C)[C@@H](O[C@H]2C[C@@](C)(OC)[C@@H](O)[C@H](C)O2)[C@H](C)[C@@H](O[C@@H]2O[C@H](C)C[C@H](N(C)C)[C@H]2O)[C@](C)(OC)C[C@@H](C)C(=O)[C@H](C)[C@@H](O)[C@]1(C)O [CLARITHROMYCIN] | 8 (≈ 10.7 µM) | > 32 | 64 (≈ 85.6 µM) | ≤ 0.06 | 0.25 (≈ 0.334 µM) | ≤ 0.06 | 8 (≈ 10.7 µM) | > 128 | 2 (≈ 2.67 µM) | 2 (≈ 2.67 µM) | ≤ 0.25
